Results published in patent US20250387354A1 (SpringWorks Therapeutics, Inc., priority 2024, published 2025).

System: NF1-associated plexiform neurofibromas (PNs)
Experiment: Phase 2b trial of mirdametinib: confirmed objective response by BICR volumetric MRI per REiNS criteria
Assay type: in vivo, human
Experimental: Study treatment was administered orally at a twice daily (BID) dose specified in the table below. Dosing was on a 28-day Cycle (4-week course) with a 3 week on/1 week off schedule. The treatment period will last for up to 24 Cycles followed by a 30-day Safety Follow-Up period.
A partial response was defined as PN decrease ≥20% compared to baseline using centrally read MRI volumetric analysis.
The major efficacy outcome measure was confirmed objective response rate (ORR), defined as the percentage of patients with complete response (disappearance of the target PN) or confirmed partial response ([…]). Responses were assessed by blinded independent central review (BICR) using volumetric magnetic resonance imaging (MRI) analysis per Response Evaluation in Neurofibromatosis and Schwannomatosis (REINS) criteria. A secondary efficacy objective was to determine the duration of response for patients who achieved a confirmed objective response.

O=C(NOC[C@H](O)CO)c1ccc(F)c(F)c1Nc1ccc(I)cc1F (single isomer, unassigned) [mirdametinib]
ORR also considering confirmed objective responses after cycle 24 (adults): 45%
ORR also considering confirmed objective responses after cycle 24 (pediatric patients): 54%
